What was measured:
A431 cells EGFR WT = experiment: A431 cell viability assay (Cell Titer-Glo, 6 days); type: cell-based, human; conditions: for IC50: Homo sapiens, A-431, 144 h, A431 cells, 6 days; for A431:NCI-H1975 (ratio): ratio of cell IC50 A431 to NCI-H1975
Procedure: (§1) RPMI1640, fetal bovine serum, penicillin/streptomycin solution were purchased from Life Technology (Madison, Wis.). Cell Titer-Glo luminescent cell viability reagents were purchased from Promega (Madison, Wis.). A431 cell line and NCI-H1975 cell line were purchased from European Collection of Cell Cultures (ECACC). Plate Reader Instrument: Envision (PerkinElmer).
(§2) 384-Well plates, 300 of A431 cells and NCI-H1975 cells were inoculated per well, a volume of which was 45 μL. And the plates were incubated overnight in a CO2 incubator at 37° C. The test compound was diluted 3-fold to obtain 10 dose concentrations, the final concentrations of which were from 10 μM to 0.508 nM, two wells. The middle plates were filled with 49 μL of medium per well. 1 μL of compound in the gradient dilution compound plates was transferred to the middle plates and mixed well. And then 5 μL liquid in the middle plates was taken to the cell plates. The cells were incubated in a CO2 incubator for 6 days. After 6 days, 25 μL of detection reagents was added. And then the mixture was incubated at room temperature for 10 minutes and the plates were read by Envision.
(§3) The reading is converted to the suppression rate by the following formula (%) (Max-Sample)/(Max-Min)*100%. IC50 Data was measured by Four-parameter curve fitting (Model 205 in XLFIT5, IDBS).

[1] = tested on: NCI-H1975 cells EGFR L858R/T790M; experiment: NCI-H1975 cell viability assay (Cell Titer-Glo, 6 days); type: cell-based; conditions: Homo sapiens, 144 h
Procedure: as §1, §2, §3

IC50 (A431 cells EGFR WT) [nM]	IC50 [1] [nM]	SMILES	A431:NCI-H1975 (ratio) (A431 cells EGFR WT)
1330	50.4	C=CC(=O)Nc1cc(Nc2nccc(-c3c4n(c5ccccc35)CCOC4)n2)c(OC)cc1N(CC)CCN(C)CC [Embodiment 22, N-(5-((4-(3,4-Dihydro-1H-[1,4]oxazino[4,3-a]indol-10-yl)pyrimidin-2-yl)amino)-2-(ethyl(2-(ethyl(methyl)amino)ethyl)amino)-4-methoxyphenyl)acrylamide]	26
2210	102	C=CC(=O)Nc1cc(Nc2nccc(-c3c4n(c5ccccc35)CCOC4)n2)c(OC)cc1N(C)CCN1CCC1 [Embodiment 26, N-(2-((2-(Azetidin-1-yl)ethyl)(methyl)amino)-5-((4-(3,4-dihydro-1H-[1,4]oxazino[4,3-a]indol-10-yl)pyrimidin-2-yl)amino)-4-methoxyphenyl)acrylamide]	22
1440	50	C=CC(=O)Nc1cc(Nc2nccc(-c3c4n(c5ccccc35)CCOC4)n2)c(OC)cc1N(CC)CCNCC [Embodiment 21, N-(5-((4-(3,4-Dihydro-1H-[1,4]oxazino[4,3-a]indol-10-yl)pyrimidin-2-yl)amino)-2-(ethyl(2-(ethylamino)ethyl)amino)-4-methoxyphenyl)acrylamide]	29
1570	63	C=CC(=O)Nc1cc(Nc2nccc(-c3c4n(c5ccccc35)CCOC4)n2)c(OC)cc1N(C)CCNC(C)C [Embodiment 23, N-(5-((4-(3,4-Dihydro-1H-[1,4]oxazino[4,3-a]indol-10-yl)pyrimidin-2-yl)amino)-2-((2-(isopropylamino)ethyl)(methyl)amino)-4-methoxyphenyl)acrylamide]	25

— US10093656B2, “Fused-ring or tricyclic aryl pyrimidine compound used as kinase inhibitor” (NANJING SANHOME PHARMACEUTICAL CO., LTD, priority 2015, dated 2018)
